This note sets out measurements from US7169579B2, “Method of isolating Streptococcus sobrinus and selection medium” (Nihon University, priority 2001, dated 2007).

What all share (assay type): cell-based
The subject of test [1] is Streptococcus mutans. Briefly: Susceptibility test to antibiotics, microbroth dilution method (MIC). As to conditions: for susceptibilities of Streptococcus mutans relative to those of Streptococcus sobrinus: from MICs of Table 2; for difference between Streptococcus mutans and Streptococcus sobrinus in their susceptibilities: in words, from MICs of Tables 2 and 3. Here is the method: (§1) The susceptibility test was carried out in accordance with microbroth dilution method.
(§2) The above-described antibiotics were dissolved in an appropriate solution, respectively, and the respective antibiotic solutions were divided into serial two-fold dilutions in a 96-well microtiter plates containing BHI broth. The bacteria were precultured in BHI broth, respectively, and inoculated into the wells containing the antibiotic solution to make a final concentration of the bacteria to be 1×10^4 cells/well, respectively. The plates were anaerobically incubated at a temperature of 37° C. for 48 hours. After mixing the broth in each well by the use of a pipette, the absorbance at 550 nm in each well was measured with a microplate reader (manufactured by Corona Electric Co., Ibaraki, Japan), to determine bacterial growth. The antibiotic concentration at which no bacterial growth was observed was defined as the minimal inhibitory concentration (MIC).
(In general: Dilution methods test growth across graded concentrations, often in twofold steps.)

Test [2] deals with Streptococcus sobrinus. Described as above. On the procedure:
as §1, §2

Test [3] concerns Streptococcus mutans. In words: Recovery from no-growth wells on MS agar: bactericidal or bacteriostatic. On the procedure: (§3) Aliquots of 10 μl of the broth in the well, which no bacterial growth was observed were inoculated onto Mitis Salivarius Agar (MS medium; manufactured by Difco) plates, respectively, and anaerobically incubated at a temperature of 37° C. for 48 hours. The recovery of the inoculated bacteria was calculated to estimate which the mechanism of growth inhibition was bactericidal or bacteriostatic.

Test [4] deals with Streptococcus sobrinus. Described as above. Here is the method: as §3
[5] abbreviates: Streptococcus mutans 10449 (serotype c).
Setting [6] is: Streptococcus sobrinus, Streptococcus sobrinus 0MZ176 (serotype d), read-out: MIC.
Setting [7] is: Streptococcus sobrinus, Streptococcus sobrinus B-13 (serotype d), read-out: MIC.
The mark [8] stands for this setting: Streptococcus mutans, Streptococcus mutans 10449 (serotype c), read-out: MIC.
Setting [9] is: Streptococcus mutans, Streptococcus mutans JC2 (serotype c), read-out: MIC.
The mark [10] stands for this setting: Streptococcus mutans, Streptococcus mutans Ingbritt, serotype c, read-out: MIC.
[11] abbreviates: Streptococcus mutans, Streptococcus mutans LM7, serotype e, read-out: MIC.
Setting [12] is: Streptococcus mutans, Streptococcus mutans NUM-Sme1, serotype e, read-out: MIC.
Where [13] appears, read: Streptococcus mutans, Streptococcus mutans NUM-Smf1, serotype f, read-out: MIC.
[14] abbreviates: Streptococcus mutans, Streptococcus mutans OMZ175, serotype f, read-out: MIC.
Where [15] appears, read: Streptococcus mutans, Streptococcus mutans PS14, serotype c, read-out: MIC.
The mark [16] stands for this setting: Streptococcus mutans, strains of Table 2, read-out: MIC to Streptococcus mutans.
The mark [17] stands for this setting: Streptococcus mutans, strains of serotype f of Streptococcus mutans, summary of Table 3, read-out: MIC.
Where [18] appears, read: Streptococcus mutans, strains of serotypes c and e of Streptococcus mutans, summary of Table 3, read-out: MIC.
[19] abbreviates: Streptococcus sobrinus, Streptococcus sobrinus NIDR6715, serotype g, read-out: MIC.
Setting [20] is: Streptococcus sobrinus, Streptococcus sobrinus NUM-Ssd1, serotype d, read-out: MIC.
The mark [21] stands for this setting: Streptococcus sobrinus, Streptococcus sobrinus NUM-Ssd2, serotype d, read-out: MIC.
[22] abbreviates: Streptococcus sobrinus, Streptococcus sobrinus OMZ65, serotype g, read-out: MIC.
Setting [23] is: Streptococcus sobrinus, strains of Table 2, read-out: MIC to Streptococcus sobrinus.
[24] abbreviates: Streptococcus mutans strains of Table 3.
Where [25] appears, read: Streptococcus mutans, strains of Table 2.
Where [26] appears, read: Streptococcus sobrinus strains of Table 3.
Setting [27] is: Streptococcus sobrinus, strains of Table 2.

Molecules are shown by their SMILES. Values after ≈ are worked out from the molar mass of the structure shown. Where two headings read alike, the source gives them in different places.

For the compound `C[C@@H](O)[C@H]1C(=O)N2C(C(=O)O)=C(SCCN=CN)C[C@H]12` [Imipenem], the MIC in the test on Streptococcus mutans [1] (Streptococcus mutans) was 0.125 µg/mL (≈ 0.418 µM); in the test on Streptococcus mutans [1] (setting [5]), 0.125 µg/mL (≈ 0.418 µM); in the test on Streptococcus sobrinus [2] (setting [6]), 0.031 µg/mL (≈ 0.104 µM); in the test with Streptococcus sobrinus [2] (setting [7]) it was 0.016 µg/mL (≈ 0.0534 µM).
Consider `CC1(C)S[C@@H]2[C@H](NC(=O)Cc3ccccc3)C(=O)N2[C@H]1C(=O)O` [Benzylpenicillin], for which the minimal inhibitory concentration (MIC) with Streptococcus mutans [1] (setting [8]) was 0.1 µg/mL (≈ 0.299 µM); in the test with Streptococcus mutans [1] (setting [9]), 0.1 µg/mL (≈ 0.299 µM); in the test on Streptococcus sobrinus [2] (setting [6]), 0.05 µg/mL (≈ 0.15 µM); in the test with Streptococcus sobrinus [2] (setting [7]) it was 0.05 µg/mL (≈ 0.15 µM). Moreover, the “susceptibilities of Streptococcus sobrinus relative to those of Streptococcus mutans” value with Streptococcus sobrinus [2] (from MICs of Table 2) is listed as “twice as high”.
On to `C[C@H]1[C@H](NC(=O)/C(=N\OC(C)(C)C(=O)O)c2csc(N)n2)C(=O)N1S(=O)(=O)O` [Aztreonam], for which the MIC with Streptococcus mutans [1] (setting [8]) was 125 µg/mL (≈ 287 µM); in the test on Streptococcus mutans [1] (setting [10]), 125 µg/mL (≈ 287 µM); in the test with Streptococcus mutans [1] (setting [9]) it was 125 µg/mL (≈ 287 µM); in the test with Streptococcus mutans [1] (setting [11]) it was 125 µg/mL (≈ 287 µM); in the test on Streptococcus mutans [1] (setting [12]), 125 µg/mL (≈ 287 µM); with Streptococcus mutans [1] (setting [13]) it was 250 µg/mL (≈ 574 µM). Moreover, the MIC in the test with Streptococcus mutans [1] (setting [14]) was found to be 250 µg/mL (≈ 574 µM); with Streptococcus mutans [1] (setting [15]), 125 µg/mL (≈ 287 µM); in the test with Streptococcus mutans [1] (setting [16]) it was 125 µg/mL (≈ 287 µM); in the test with Streptococcus mutans [1] (setting [17]), 250 µg/mL (≈ 574 µM); with Streptococcus mutans [1] (setting [18]), 125 µg/mL (≈ 287 µM); in the test on Streptococcus sobrinus [2] (setting [6]) it was 2000 µg/mL (≈ 4590 µM). Moreover, the MIC in the test on Streptococcus sobrinus [2] (setting [7]), in the test on Streptococcus sobrinus [2] (setting [19]), in the test on Streptococcus sobrinus [2] (setting [20]), in the test on Streptococcus sobrinus [2] (setting [21]), with Streptococcus sobrinus [2] (setting [22]) and with Streptococcus sobrinus [2] (setting [23]) was 2000 µg/mL (≈ 4590 µM) throughout. In the test with Streptococcus mutans [1], the “susceptibilities of Streptococcus mutans relative to those of Streptococcus sobrinus” value came to 16 fold. For the same compound, the “mode of action (bactericidal or bacteriostatic)” value in the test on Streptococcus mutans [3] (setting [24]), with Streptococcus mutans [3] (setting [25]), in the test with Streptococcus sobrinus [4] (setting [26]) and in the test on Streptococcus sobrinus [4] (setting [27]) was “bactericidal” each time.
Turning to `Cc1onc(-c2ccccc2Cl)c1C(=O)N[C@@H]1C(=O)N2[C@@H]1SC(C)(C)[C@@H]2C(=O)O` [Cloxacillin], the MIC with Streptococcus mutans [1] (setting [8]) came out at 0.63 µg/mL (≈ 1.45 µM); in the test on Streptococcus mutans [1] (setting [9]), 0.63 µg/mL (≈ 1.45 µM); in the test with Streptococcus sobrinus [2] (setting [6]) it was 1.25 µg/mL (≈ 2.87 µM); in the test with Streptococcus sobrinus [2] (setting [7]), 1.25 µg/mL (≈ 2.87 µM). For the same compound, the “susceptibilities of Streptococcus mutans relative to those of Streptococcus sobrinus” value in the test with Streptococcus mutans [1] is recorded as “twice as high”.
On to `O=C(Cc1cccs1)N[C@@H]1C(=O)N2C(C(=O)[O-])=C(C[n+]3ccccc3)CS[C@H]12` [Cephaloridine], for which the minimal inhibitory concentration (MIC) in the test on Streptococcus mutans [1] (Streptococcus mutans), against Streptococcus mutans [1] (setting [5]), in the test on Streptococcus sobrinus [2] (Streptococcus sobrinus) and in the test on Streptococcus sobrinus [2] (Streptococcus sobrinus B-13 (serotype d)) was 0.025 µg/mL (≈ 0.0602 µM) in each case. Also, in the test with Streptococcus mutans [1], the “difference between Streptococcus mutans and Streptococcus sobrinus in their susceptibilities” value is “no significant difference”.
Consider `Cc1nnc(SCC2=C(C(=O)O)N3C(=O)[C@@H](NC(=O)Cn4cnnn4)[C@H]3SC2)s1` [Cefazoline], for which the MIC in the test with Streptococcus mutans [1] (setting [8]) is 0.25 µg/mL (≈ 0.55 µM); in the test on Streptococcus mutans [1] (setting [9]), 0.25 µg/mL (≈ 0.55 µM); with Streptococcus sobrinus [2] (setting [6]), 0.25 µg/mL (≈ 0.55 µM); in the test with Streptococcus sobrinus [2] (setting [7]), 0.5 µg/mL (≈ 1.1 µM). For the same compound, in the test with Streptococcus mutans [1], the “difference between Streptococcus mutans and Streptococcus sobrinus in their susceptibilities” value is recorded as “no significant difference”.
With `CO[C@@]1(NC(=O)Cc2cccs2)C(=O)N2C(C(=O)O)=C(COC(N)=O)CS[C@@H]21` [Cefoxitin], the MIC with Streptococcus mutans [1] (setting [8]) was 3.13 µg/mL (≈ 7.32 µM); with Streptococcus mutans [1] (setting [9]), 3.13 µg/mL (≈ 7.32 µM); in the test with Streptococcus sobrinus [2] (setting [6]), 12.5 µg/mL (≈ 29.2 µM); in the test on Streptococcus sobrinus [2] (setting [7]) it was 3.13 µg/mL (≈ 7.32 µM). In the test on Streptococcus mutans [1], the “difference between Streptococcus mutans and Streptococcus sobrinus in their susceptibilities” value was “no significant difference”. Besides, the “susceptibility of OMZ176 strain relative to the other bacterial strains” value in the test on Streptococcus sobrinus [2] (Streptococcus sobrinus OMZ176 vs other strains of Table 2) is listed as “approximately 4 times”.
`CC1=C(C(=O)O)N2C(=O)[C@@H](NC(=O)[C@H](N)c3ccccc3)[C@H]2SC1` [Cephalexin]: the MIC in the test on Streptococcus mutans [1] (setting [8]), with Streptococcus mutans [1] (setting [9]), in the test on Streptococcus sobrinus [2] (setting [6]) and with Streptococcus sobrinus [2] (setting [7]) was 1.25 µg/mL (≈ 3.6 µM) throughout. For the same compound, the “difference between Streptococcus mutans and Streptococcus sobrinus in their susceptibilities” value in the test on Streptococcus mutans [1] was “no significant difference”.
Turning to `NC(=O)OC[C@@H]1[C@H](NC(=O)/C(=N\OCC(=O)O)c2csc(N)n2)C(=O)N1S(=O)(=O)O` [Carumonam], the MIC in the test on Streptococcus mutans [1] (setting [8]) amounted to 125 µg/mL (≈ 268 µM); in the test with Streptococcus mutans [1] (setting [10]), 125 µg/mL (≈ 268 µM); in the test on Streptococcus mutans [1] (setting [9]) it was 125 µg/mL (≈ 268 µM); with Streptococcus mutans [1] (setting [11]) it was 125 µg/mL (≈ 268 µM); with Streptococcus mutans [1] (setting [12]), 125 µg/mL (≈ 268 µM); in the test on Streptococcus mutans [1] (setting [13]), 250 µg/mL (≈ 536 µM). For the same compound, the MIC was 250 µg/mL (≈ 536 µM) in the test with Streptococcus mutans [1] (setting [14]); 125 µg/mL (≈ 268 µM) in the test with Streptococcus mutans [1] (setting [15]); 125 µg/mL (≈ 268 µM) in the test with Streptococcus mutans [1] (setting [16]); 250 µg/mL (≈ 536 µM) with Streptococcus mutans [1] (setting [17]); 125 µg/mL (≈ 268 µM) in the test with Streptococcus mutans [1] (setting [18]); 2000 µg/mL (≈ 4290 µM) with Streptococcus sobrinus [2] (setting [6]). Further, the MIC in the test with Streptococcus sobrinus [2] (setting [7]) was found to be 2000 µg/mL (≈ 4290 µM); with Streptococcus sobrinus [2] (setting [19]) it was 2000 µg/mL (≈ 4290 µM); in the test on Streptococcus sobrinus [2] (setting [20]) it was 2000 µg/mL (≈ 4290 µM); in the test on Streptococcus sobrinus [2] (setting [21]), 2000 µg/mL (≈ 4290 µM); in the test on Streptococcus sobrinus [2] (setting [22]) it was 1000 µg/mL (≈ 2140 µM); with Streptococcus sobrinus [2] (setting [23]) it was 2000 µg/mL (≈ 4290 µM). For the same compound, the “susceptibilities of Streptococcus mutans relative to those of Streptococcus sobrinus” value with Streptococcus mutans [1] stood at 16 fold. The “mode of action (bactericidal or bacteriostatic)” value in the test on Streptococcus mutans [3] (setting [24]), with Streptococcus mutans [3] (setting [25]), in the test on Streptococcus sobrinus [4] (setting [26]) and in the test with Streptococcus sobrinus [4] (setting [27]) was “bactericidal” in each case.

What is called MIC is the least concentration at which growth counts as inhibited.
